According to patent publication US20250064941A1, “SIGLEC LIGANDS, CONJUGATES, AND METHODS OF USE THEREOF” (Osprey Biopharmaceuticals, Inc., priority 2023, published 2025):

Experiments:
[1] = target: T1, mouse Siglec-2-Fc-Avi (CD22) (Mus musculus, UniProt P35329); experiment: SPR binding affinity to mouse CD22; details: steady-state analysis
T1 construct: made in house
T1 sequence (P35329 22-708 limits assumed): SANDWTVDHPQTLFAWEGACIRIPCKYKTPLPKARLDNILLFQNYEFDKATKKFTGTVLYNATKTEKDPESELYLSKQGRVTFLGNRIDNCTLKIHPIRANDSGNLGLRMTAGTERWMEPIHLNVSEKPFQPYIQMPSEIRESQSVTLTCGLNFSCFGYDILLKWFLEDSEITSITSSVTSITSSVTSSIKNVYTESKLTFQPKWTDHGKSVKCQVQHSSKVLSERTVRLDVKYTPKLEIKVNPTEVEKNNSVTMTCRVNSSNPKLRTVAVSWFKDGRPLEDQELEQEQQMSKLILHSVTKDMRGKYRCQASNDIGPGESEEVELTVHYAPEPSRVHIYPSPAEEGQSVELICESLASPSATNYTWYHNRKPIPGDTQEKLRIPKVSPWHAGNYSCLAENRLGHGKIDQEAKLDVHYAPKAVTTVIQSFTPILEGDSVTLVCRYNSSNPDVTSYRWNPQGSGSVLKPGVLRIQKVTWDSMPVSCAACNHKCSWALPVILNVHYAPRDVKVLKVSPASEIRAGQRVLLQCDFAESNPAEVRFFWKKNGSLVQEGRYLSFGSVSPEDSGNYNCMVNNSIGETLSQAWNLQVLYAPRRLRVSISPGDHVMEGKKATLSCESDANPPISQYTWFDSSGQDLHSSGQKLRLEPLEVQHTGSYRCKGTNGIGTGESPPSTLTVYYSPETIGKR
Method in brief: (§1)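 Steady-state fits gave the affinities. Before capture on a streptavidin surface, biotinylated CD22 had native sialic acids stripped (SialoExo, 4 hours, 37° C.). Running buffer: 10 mM HEPES pH 7.5, 150 mM NaCl, 0.05% Tween-20, 1% DMSO, with DMSO solvent correction.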

[2] = target: T2, human Siglec-2/CD22 protein (Homo sapiens, UniProt P20273); experiment: SPR binding affinity to human CD22; details: steady-state analysis
T2 construct: purchased Acro Biosystems SI2-H82E3
T2 sequence (P20273 20-847): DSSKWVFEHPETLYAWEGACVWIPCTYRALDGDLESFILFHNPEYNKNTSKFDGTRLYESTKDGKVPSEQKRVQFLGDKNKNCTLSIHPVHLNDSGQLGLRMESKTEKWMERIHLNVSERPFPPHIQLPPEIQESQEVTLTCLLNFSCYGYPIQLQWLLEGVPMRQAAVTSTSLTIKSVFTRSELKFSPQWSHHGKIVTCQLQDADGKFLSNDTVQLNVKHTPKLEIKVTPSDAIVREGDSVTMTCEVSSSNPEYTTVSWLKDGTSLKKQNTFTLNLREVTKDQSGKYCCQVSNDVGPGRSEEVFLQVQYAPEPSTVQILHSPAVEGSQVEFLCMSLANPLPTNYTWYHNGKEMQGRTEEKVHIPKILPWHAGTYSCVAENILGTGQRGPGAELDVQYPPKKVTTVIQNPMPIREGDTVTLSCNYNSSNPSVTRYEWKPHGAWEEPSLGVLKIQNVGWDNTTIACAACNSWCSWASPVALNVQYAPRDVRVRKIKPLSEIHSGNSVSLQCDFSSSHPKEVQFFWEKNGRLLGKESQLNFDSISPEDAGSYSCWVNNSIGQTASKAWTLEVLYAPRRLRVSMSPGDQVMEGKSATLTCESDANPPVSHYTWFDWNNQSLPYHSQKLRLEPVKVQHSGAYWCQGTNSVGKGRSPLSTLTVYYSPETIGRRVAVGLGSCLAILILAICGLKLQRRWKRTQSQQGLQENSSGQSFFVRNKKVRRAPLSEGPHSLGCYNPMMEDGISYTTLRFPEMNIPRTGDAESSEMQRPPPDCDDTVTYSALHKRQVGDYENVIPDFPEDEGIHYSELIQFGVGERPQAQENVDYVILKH
Method in brief: as §1

cynomolgus Siglec-2/CD22 = cynomolgus Siglec-2/CD22 (Macaca fascicularis, UniProt A0A2K5WCZ6); experiment: biochemical; format: binding; details: SPR, steady-state analysis; read-out: Affinity cyno CD22
Description: Prior to immobilization, CD22 proteins were treated with SialoExo (Genovis, Cat #G1-SM1-020) for 4 hours at 37° C. to remove native sialic acid residues.
Surface preparation for cyno CD22 protein consisted of amine coupling to Cytiva CM5 chip (Cytiva, Cat #BR100530) using the Cytiva amine coupling kit Type 2 (Cytiva, Cat #BR100633). Following the standard amine coupling protocols, EDC and NHS from the kit were mixed 1:1 and injected over flow cells 1 and 2. […] Any active carboxy groups were then capped with 1M Ethanolamine, pH 8.5 for 420s on flow cells 1 and 2.
Binding experiments of Siglec-ligand conjugated proteins or Siglec ligand compounds were performed on the surfaces prepared above in 10 mM HEPES, 150 mM NaCl, 0.05% Tween-20, pH 7.5, 1% DMSO as the running buffer. […] The compounds were then allowed to dissociate from the surface for 120 seconds. […] Solvent correction was performed using 0.5, 1, 1.5, and 2% DMSO spike into running buffer without DMSO. […] Data was analyzed using steady-state analysis in Biacore Insight Evaluation Software, version 3.0 for Siglec ligand compounds.

Chain of cynomolgus Siglec-2/CD22 (A0A2K5WCZ6 entry or part of it): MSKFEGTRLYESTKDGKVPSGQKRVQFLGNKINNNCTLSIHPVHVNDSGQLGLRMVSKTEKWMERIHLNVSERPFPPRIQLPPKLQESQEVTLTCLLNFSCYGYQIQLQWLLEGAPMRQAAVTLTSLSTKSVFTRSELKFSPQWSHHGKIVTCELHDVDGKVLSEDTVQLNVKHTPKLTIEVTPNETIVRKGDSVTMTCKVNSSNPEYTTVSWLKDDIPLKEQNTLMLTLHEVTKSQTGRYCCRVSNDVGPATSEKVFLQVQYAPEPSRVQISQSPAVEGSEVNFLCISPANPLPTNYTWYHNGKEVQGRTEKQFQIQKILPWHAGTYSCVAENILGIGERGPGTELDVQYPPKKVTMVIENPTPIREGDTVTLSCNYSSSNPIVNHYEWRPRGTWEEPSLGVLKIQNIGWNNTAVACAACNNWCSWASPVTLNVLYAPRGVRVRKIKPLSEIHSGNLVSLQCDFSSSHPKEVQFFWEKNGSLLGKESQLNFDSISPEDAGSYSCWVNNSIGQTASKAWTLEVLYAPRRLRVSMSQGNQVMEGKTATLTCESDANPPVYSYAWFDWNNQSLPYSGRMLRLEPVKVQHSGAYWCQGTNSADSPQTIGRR

Compound	Kd [1] [nM]	Kd [2] [nM]	Kd (cynomolgus Siglec-2/CD22) [nM]
C#CCCOc1ccc(CO[C@]2(C(=O)O)C[C@H](O)[C@@H](NC(=O)CO)[C@H]([C@H](O)[C@H](O)CNC(=O)Cc3ccc4nc[nH]c4c3)O2)cc1 [Compound 8, (2R,4S,5R,6R)-6-((1R,2R)-3-(2-(1H-benzo[d]imidazol-6-yl)acetamido)-1,2-dihydroxypropyl)-2-((4-(but-3-yn-1-yloxy)benzyl)oxy)-4-hydroxy-5-(2-hydroxyacetamido)tetrahydro-2H-pyran-2-carboxylic acid]	1000 to 10000	1000 to 10000	1000 to 10000
C#CCOCCCCCCO[C@]1(C(=O)O)C[C@H](O)[C@@H](NC(=O)CO)[C@H]([C@H](O)[C@H](O)CNC(=O)Cc2ccc3[nH]ccc3c2)O1 [Compound 6, (2R,4S,5R,6R)-6-((1R,2R)-3-(2-(1H-indol-5-yl)acetamido)-1,2-dihydroxypropyl)-4-hydroxy-5-(2-hydroxyacetamido)-2-((6-(prop-2-yn-1-yloxy)hexyl)oxy)tetrahydro-2H-pyran-2-carboxylic acid]	1000 to 10000	< 1000	< 1000
C#CCCOc1ccc(CO[C@]2(C(=O)O)C[C@H](O)[C@@H](NC(=O)CO)[C@H]([C@H](O)[C@H](O)CNC(=O)Cc3ccc(N4CCC(NC(C)=O)CC4)cc3)O2)cc1 [Compound 137, (2R,4S,5R,6R)-6-((1R,2R)-3-(2-(4-(4-acetamidopiperidin-1-yl)phenyl)acetamido)-1,2-dihydroxypropyl)-2-((4-(but-3-yn-1-yloxy)benzyl)oxy)-4-hydroxy-5-(2-hydroxyacetamido)tetrahydro-2H-pyran-2-carboxylic acid]	> 10000	> 10000	1000 to 10000
C#CCCOc1ccc(CO[C@]2(C(=O)O)C[C@H](O)[C@@H](NC(=O)CO)[C@H]([C@H](O)[C@H](O)CNC(=O)Cc3ccc(-c4ccccc4)cc3)O2)cc1 [Compound 37, (2R,4S,5R,6R)-6-((1R,2R)-3-(2-([1,1′-biphenyl]-4-yl)acetamido)-1,2-dihydroxypropyl)-2-((4-(but-3-yn-1-yloxy)benzyl)oxy)-4-hydroxy-5-(2-hydroxyacetamido)tetrahydro-2H-pyran-2-carboxylic acid]	< 1000	< 1000	< 1000
C#CCOCCOCCNc1c(NCCCCCCO[C@]2(C(=O)O)C[C@H](O)[C@@H](NC(=O)CO)[C@H]([C@H](O)[C@H](O)CNC(=O)c3ccc(C(F)F)cc3)O2)c(=O)c1=O [Compound 231, (2R,4S,5R,6R)-6-((1R,2R)-3-(4-(difluoromethyl)benzamido)-1,2-dihydroxypropyl)-2-((6-((3,4-dioxo-2-((2-(2-(prop-2-yn-1-yloxy)ethoxy)ethyl)amino)cyclobut-1-en-1-yl)amino)hexyl)oxy)-4-hydroxy-5-(2-hydroxyacetamido)tetrahydro-2H-pyran-2-carboxylic acid]	1000 to 10000	< 1000	< 1000
C#CCOCCOCCO[C@]1(C(=O)O)C[C@H](O)[C@@H](NC(=O)CO)[C@H]([C@H](O)[C@H](O)CNC(=O)Cc2ccc(Cl)cc2)O1 [Compound 126, (2R,4S,5R,6R)-6-((1R,2R)-3-(2-(4-chlorophenyl)acetamido)-1,2-dihydroxypropyl)-4-hydroxy-5-(2-hydroxyacetamido)-2-(2-(2-(prop-2-yn-1-yloxy)ethoxy)ethoxy)tetrahydro-2H-pyran-2-carboxylic acid]	1000 to 10000	1000 to 10000	1000 to 10000
C#CCOCCOCCO[C@]1(C(=O)O)C[C@H](O)[C@@H](NC(=O)CO)[C@H]([C@H](O)[C@H](O)CNC(=O)Cc2ccccc2O)O1 [Compound 151, (2R,4S,5R,6R)-6-((1R,2R)-1,2-dihydroxy-3-(2-(2-hydroxyphenyl)acetamido)propyl)-4-hydroxy-5-(2-hydroxyacetamido)-2-(2-(2-(prop-2-yn-1-yloxy)ethoxy)ethoxy)tetrahydro-2H-pyran-2-carboxylic acid]	1000 to 10000	1000 to 10000	> 10000
C#CCOCCOCCO[C@]1(C(=O)O)C[C@H](O)[C@@H](NC(=O)CO)[C@H]([C@H](O)[C@H](O)CNC(=O)Cc2ccc(Cl)c(O)c2)O1 [Compound 134, (2R,4S,5R,6R)-6-((1R,2R)-3-(2-(4-chloro-3-hydroxyphenyl)acetamido)-1,2-dihydroxypropyl)-4-hydroxy-5-(2-hydroxyacetamido)-2-(2-(2-(prop-2-yn-1-yloxy)ethoxy)ethoxy)tetrahydro-2H-pyran-2-carboxylic acid]	1000 to 10000	< 1000	< 1000

Further lines, results first:

Kd [1] [nM]	Kd [2] [nM]	Kd (cynomolgus Siglec-2/CD22) [nM]	Compound
1000 to 10000	> 10000	< 1000	C#CCOCCOCCO[C@]1(C(=O)O)C[C@H](O)[C@@H](NC(=O)CO)[C@H]([C@H](O)[C@H](O)CNC(=O)c2ccccc2)O1 [Compound 202, (2R,4S,5R,6R)-6-((1R,2R)-3-benzamido-1,2-dihydroxypropyl)-4-hydroxy-5-(2-hydroxyacetamido)-2-(2-(2-(prop-2-yn-1-yloxy)ethoxy)ethoxy)tetrahydro-2H-pyran-2-carboxylic acid]
< 1000	< 1000	< 1000	CC(=O)NCCOCCOCCOCCOCc1cn(CCCCCCO[C@]2(C(=O)O)C[C@H](O)[C@@H](NC(=O)CO)[C@H]([C@H](O)[C@H](O)CNC(=O)Cc3ccc(Cl)cc3)O2)nn1 [Cpd. 246, (2R,4S,5R,6R)-6-((1R,2R)-3-(2-(4-chlorophenyl)acetamido)-1,2-dihydroxypropyl)-4-hydroxy-5-(2-hydroxyacetamido)-2-((6-(4-(15-oxo-2,5,8,11-tetraoxa-14-azahexadecyl)-1H-1,2,3-triazol-1-yl)hexyl)oxy) tetrahydro-2H-pyran-2-carboxylic acid]
1000 to 10000	< 1000	1000 to 10000	C#CCOCCOCCO[C@]1(C(=O)O)C[C@H](O)[C@@H](NC(=O)NC)[C@H]([C@H](O)[C@H](O)CNC(=O)Cc2ccc(-c3ccc(O)cc3)cc2)O1 [Compound 70, (2R,4S,5R,6R)-6-((1R,2R)-1,2-dihydroxy-3-(2-(4′-hydroxy-[1,1′-biphenyl]-4-yl)acetamido)propyl)-4-hydroxy-5-(3-methylureido)-2-(2-(2-(prop-2-yn-1-yloxy)ethoxy)ethoxy)tetrahydro-2H-pyran-2-carboxylic acid]
1000 to 10000	1000 to 10000	1000 to 10000	C#CCOCCOCCNc1c(NCCCCCCO[C@]2(C(=O)O)C[C@H](O)[C@@H](NC(=O)CO)[C@H]([C@H](O)[C@H](O)CNC(=O)c3cccc(C(F)F)c3)O2)c(=O)c1=O [Compound 233, (2R,4S,5R,6R)-6-((1R,2R)-3-(3-(difluoromethyl)benzamido)-1,2-dihydroxypropyl)-2-((6-((3,4-dioxo-2-((2-(2-(prop-2-yn-1-yloxy)ethoxy)ethyl)amino)cyclobut-1-en-1-yl)amino)hexyl)oxy)-4-hydroxy-5-(2-hydroxyacetamido)tetrahydro-2H-pyran-2-carboxylic acid]
